Experimental data from PMC11459619, “Evaluating the amoeba thioredoxin reductase selenoprotein as potential drug target for treatment of Acanthamoeba infections” (International Journal for Parasitology: Drugs and Drug …, 2024).
Read-outs that look alike come from different tables or passages of the source.

Experiments:
AcTrxR-L [1] = target: T1, AcTrxR-L (Acanthamoeba castellanii, UniProt L8HG59); test: DTNB reduction at 412 nm (250 μM NADPH, 1 mM DTNB, TE buffer) after preincubation of 50 nM AcTrxR-L with inhibitor, 250 μM NADPH and 0.01 mg/ml BSA for 30 min (10 min in results), diluted 5-fold, without desalting.; format: biochemical; details: n = 2; read-out: IC50 (μM), Not desalted
T1 construct: gene ACA1_153040; recombinant selenoprotein from E. coli C321.ΔA (pABC2a, UAG as Sec codon, SECIS element); N-terminal His-SUMO removed with ULP1; homodimer with one FAD per subunit
T1 sequence (L8HG59 1-526): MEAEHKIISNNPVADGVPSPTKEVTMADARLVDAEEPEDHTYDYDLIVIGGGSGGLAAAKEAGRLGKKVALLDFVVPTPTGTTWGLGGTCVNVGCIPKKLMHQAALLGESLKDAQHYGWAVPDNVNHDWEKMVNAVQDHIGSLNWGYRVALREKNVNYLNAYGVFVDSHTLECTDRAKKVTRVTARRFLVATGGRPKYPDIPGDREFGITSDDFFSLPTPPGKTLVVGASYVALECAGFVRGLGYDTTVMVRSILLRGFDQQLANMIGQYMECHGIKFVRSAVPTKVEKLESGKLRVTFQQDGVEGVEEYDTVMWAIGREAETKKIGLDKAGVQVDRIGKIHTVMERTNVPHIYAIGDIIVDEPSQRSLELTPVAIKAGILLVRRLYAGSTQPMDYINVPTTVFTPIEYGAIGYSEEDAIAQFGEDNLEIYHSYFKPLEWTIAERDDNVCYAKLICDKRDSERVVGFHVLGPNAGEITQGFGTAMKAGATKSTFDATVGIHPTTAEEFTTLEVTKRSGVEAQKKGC
Procedure: (§1) Then, the reaction was diluted 5-fold and 200 μl was desalted using Zeba™ Spin Desalting Columns and Plates, 40K MWCO (Thermo Scientific, 87767), whereupon 100 μl of the reactions, either desalted or not desalted, were transferred to each well of a 96 well plate. Subsequently, 250 μM NADPH and 1 mM DTNB were added to each well. The TNB^− formation at A412 nm was followed by a spectrophotometer and experiments were carried out in duplicates. The IC50 values were determined based on the nonlinear regression (curve fit), dose-response-inhibitor equation, log (inhibitor) vs. normalized response (variable slope) using GraphPad Prism.

AcTrxR-L [2] = target: T1, AcTrxR-L; test: DTNB reduction at 412 nm (250 μM NADPH, 1 mM DTNB, TE buffer) after preincubation of 50 nM AcTrxR-L with inhibitor, 250 μM NADPH and 0.01 mg/ml BSA for 30 min (10 min in results), diluted 5-fold and desalted to remove free inhibitor.; format: biochemical; details: n = 2
Procedure: as §1

[3] = test system: human corneal epithelial cells (HCECs); test: Cytotoxicity test on human corneal epithelial cells (CellTiter 96 AQueous One); format: cell-based; details: HCEC; for TD50 24 h: 24 h of treatment; for TD50 48 h: 48 h of treatment; for TD50 72 h: 72 h of treatment
Procedure: Cytotoxicity of the compounds towards human corneal epithelial cells (HCECs) (Innoprot, ref. P10871) was determined ([Loufouma Mbouaka et al., 2023]) in 96-well microplates. The HCECs (1 × 10^4 cells/well) were grown in 100 μL of corneal epithelial cell medium (CEpiCM) (Innoprot, ref. P60131) supplemented with 1% of corneal epithelial cell growth supplement (CEpiCGS), 2% of fetal bovine serum (FBS) and 1% antibiotic mix: 10,000 U penicillin, 10 mg streptomycin and 25 μg amphotericin B per milliliter. After overnight incubation, cytotoxicity was evaluated adding 20 μL of CellTiter 96® AQueous One Solution Reagent (Promega, Madison, WI, USA). After 1 h of incubation at 37 °C, the absorbance at 490 nm was read using a spectrophotometer (Tecan, Spark 10M, Switzerland).
The TD50 values were calculated using the same method as the IC50 values with GraphPad Prism. Moreover, the therapeutic index was determined as the ratio of TD50 to IC50 ([Muller and Milton, 2012]).

AcTrxR-L [4] = test: Inhibition of AcTrxR-L, direct DTNB reduction assay; format: biochemical, Acanthamoeba castellanii; details: for IC50: DTNB reduction; for Reversibility of AcTrxR-L inhibition after desalting: removal of compound from solution by desalting
Procedure: as §1, with “The reaction consisted of incubating 50 nM AcTrxR-L with 0.5–10 μM of auranofin, TRi-1 or TRi- 2, or 1% v/v DMSO, 250 μM NADPH and 0.01 mg/ml BSA in TE buffer for 30 min ([Fata et al., 2022]). Then,” for “Then,”

[5] = test system: Acanthamoeba strain Neff trophozoites; test: In vitro amoebicide assay, trypan blue direct counting; format: cell-based, Acanthamoeba castellanii
Procedure: Acanthamoeba castellanii strain Neff (ATCC® 30010™) genotype T4 was used for all experiments. The amoebae were grown in peptone yeast extract-glucose medium (PYG) in 75 cm^2 tissue culture flasks at 25 °C with weekly medium changes as described previously ([Köhsler et al., 2022]).
The amoebicidal activity was assessed by direct counting, using trypan blue ([Martín-Pérez et al., 2021]) and assayed in sterile 96-well microplates. Diverse drug concentrations (0–20 μM) were prepared via serial dilutions in DMSO, keeping total DMSO at 5% in the control well and in the drug solution wells ranging 5–3%. Amoebae from log-phase cultures (5 × 10^4 trophozoites/well) were inoculated into the microplates and the trophozoites were resuspended in PYG medium. Drug assays contained 100 μL of trophozoites solution, 90 μL of PYG media and 10 μL of the drug solution per well. The growth control (positive control) included 100 μL of trophozoites solution, 90 μL of PYG medium and 10 μL of DMSO. Each drug concentration and control were investigated in triplicates and each experiment was repeated in two independent setups. The plates were incubated at 25 °C during 4, 24, 48 and 72 h. Samples were placed in a Bürker-Türk counting chamber. The IC50 was calculated using GraphPad Prism, as explained previously.

[6] = test system: different strains of Acanthamoeba; details: ref Feng et al. (2020); read-out: IC50 against Acanthamoeba trophozoites; cited from earlier work
Schistosoma mansoni = test system: Schistosoma mansoni; set-up: method as in Kuntz et al., 2007; details: treatment of infected mice; ref Kuntz et al., 2007; cited from earlier work
AcTrxR-S = test system: AcTrxR-S; set-up: method as in Leitsch et al., 2021; details: ref Leitsch et al., 2021; read-out: IC50 enzymatic activity of AcTrxR-S; cited from earlier work
HCEC = test system: HCEC; set-up: method as in Martín-Pérez et al., 2019; details: ref Martín-Pérez et al., 2019; read-out: IC50 against HCEC; cited from earlier work
AcTrxR-L [7] = test: Direct DTNB reduction assay; format: biochemical, Acanthamoeba castellanii
Procedure: Unless stated otherwise, all enzyme assays for AcTrxR-L were based upon well-established selenoprotein TrxR assays, as outlined earlier ([Arnér, 2018]). Kinetic parameters of AcTrxR-L were determined with different biochemical assays in triplicates in cuvettes as previously described ([Fata et al., 2022]). First, the specific activity of AcTrxR-L was calculated from its NADPH-dependent DTNB reduction. The reaction mixture contained 10 nM AcTrxR-L, 250 μM NADPH, and 2.5 mM DTNB in TE buffer (50 mM Tris and 2 mM EDTA, pH 7.5), and the reduction of DTNB was monitored by measuring the formation of the TNB^− anion at A412 nm on a spectrophotometer. Each DTNB is reduced into 2 molecules of TNB^− with extinction coefficient of 13,600 M^−1cm^−1 at 412 nm and the specific activity of the enzyme was calculated as Unit per mg (U/mg), with 1 U (μmol/min) defined as conversion of 1 μmol of DTNB substrate per minute.
Apparent Michaelis-Menten parameters were in all cases calculated based on the nonlinear fit of the velocity vs substrate concentration curves to the Michaelis-Menten equation by using GraphPad Prism.

[8] = substrate: O=C(O)c1cc(SSc2ccc([N+](=O)[O-])c(C(=O)O)c2)ccc1[N+](=O)[O-]; test: purified protein, by the assay type; details: pH 7.5
[9] = after removal of the inhibitors by desalting, read-out: IC50 Desalted
[10] = in presence of the inhibitors, 50 nM AcTrxR-L, read-out: IC50 Not desalted
[11] = 48 h of treatment, read-out: IC50 48 h
[12] = 72 h of treatment, read-out: IC50 72 h

## CC[PH](CC)(CC)[Au][S][C@@H]1O[C@H](COC(C)=O)[C@@H](OC(C)=O)[C@H](OC(C)=O)[C@H]1OC(C)=O [Auranofin, auranofin (Ridaura), gold-based compound]
AcTrxR-L [1]
  IC50: 0.32 ± 0.39 µM
AcTrxR-L [2]
  IC50: 0.32 ± 0.55 µM

## COc1ccc([N+](=O)[O-])c(S(=O)(=O)c2ccc(Cl)cc2)n1 [TRi-1]
[3]
  TD50 24 h: 8.84 ± 0.044 µM
  TD50 48 h: 8.40 ± 0.168 µM
  TD50 72 h: 8.40 ± 0.003 µM
AcTrxR-L [4]; [9]
  IC50: 370 ± 110 nM
AcTrxR-L [4]; [10]
  IC50: 360 ± 70 nM
AcTrxR-L [4]
  Reversibility of AcTrxR-L inhibition after desalting: irreversibly inhibit the enzyme
[5]; 24 h of treatment, read-out: IC50 24 h
  IC50: 17700 ± 1640 nM
[5]; [11]
  IC50: 7650 ± 1710 nM
[5]; [12]
  IC50: 4290 ± 862 nM

## CC(=O)OC[C@H]1O[C@@H]([S-])[C@H](OC(C)=O)[C@@H](OC(C)=O)[C@@H]1OC(C)=O.CCP(CC)CC.[Au+] [Auranofin, auranofin]
[6]
  IC50: 5790 nM
[3]
  TD50 24 h: 2.79 ± 0.076 µM
  TD50 48 h: 1.18 ± 0.103 µM
  TD50 72 h: 0.97 ± 0.045 µM
Schistosoma mansoni
  Reduction of worm burden: 60%
AcTrxR-L [4]; [9]
  IC50: 320 ± 550 nM
AcTrxR-L [4]; [10]
  IC50: 320 ± 390 nM
AcTrxR-L [4]
  Reversibility of AcTrxR-L inhibition after desalting: irreversibly inhibit the enzyme
[5]; [11]
  IC50: 21100 ± 11000 nM
[5]; [12]
  IC50: 5640 ± 1350 nM
AcTrxR-S
  IC50: 216 nM

## [H]/N=C(\N/C(=N/[H])NCCCCCCNC(=N)NC(=N)Nc1ccc(Cl)cc1)Nc1ccc(Cl)cc1 [chlorhexidine]
HCEC
  IC50: 1580 nM

## O=C(O)c1cc(SSc2ccc([N+](=O)[O-])c(C(=O)O)c2)ccc1[N+](=O)[O-] [DTNB]
AcTrxR-L [7]
  Km: 384 ± 63.7 µM
  Vmax: 238.1 ± 19.01 µmol/min/mg
  kcat: 79.37 s⁻¹

## COc1ccc([N+](=O)[O-])c(S(=O)(=O)c2ccc(Cl)cc2)n1 [TRi-1, thioredoxin reductase inhibitor -1]
AcTrxR-L [1]
  IC50: 0.36 ± 0.07 µM
AcTrxR-L [2]
  IC50: 0.37 ± 0.11 µM

## thioredoxin reductase inhibitor -2 [TRi-2]
AcTrxR-L [1]
  IC50: > 10 µM
AcTrxR-L [2]
  IC50: > 10 µM

B1: AcTrxR-L (Acanthamoeba castellanii str. Neff) (protein)
chain: T1 sequence (L8HG59 1-526)
[8]
  Km: 384.1 ± 63.74 µM
  Vmax: 238 µmol/min/mg
  kcat: 79.4 s⁻¹
  kcat/Km: 200000 M⁻¹ s⁻¹
